From patent publication US4065356A, “Production of antibiotic FR-02A (efrotomycin) by streptomyces lactamdurans” (priority 1977, dated 1977)

Legend:
species of Mycoplasma = test: activity against Mycoplasma; format: cell-based
[1] = toxicity studies in noninfected mice; format: in vivo; conditions: for Toxicity, Tolerated / Toxicity, Toxic: IP
Procedure: *Values in the table are expressed in mg./mouse. Both infections and
therapeutic doses of FR-02A were administered intraperitoneally. FR-02A
was administered at time of infection and again 6 hours later.
**Toxicity studies of FR-02A in noninfected mice indicate that two doses
of 2.5 mg./mouse, 6 hours apart are tolerated; but higher doses i.e. 5 to […]

[2] = test system: Vibrio percolans American Type Culture Collection (ATCC 8461); test: disc-plate assay, zone of inhibition; format: cell-based
Procedure: Assays were run by the disc-plate procedure using 3/8 inch filter paper discs. The assay plates were prepared using Difco nutrient agar plus 2.0 g./l. Difco yeast extract at 10 ml. per plate. An overnight growth of the assay organism, Vibrio percolans American Type Culture Collection (ATCC 8461) in nutrient broth plus 0.2% yeast extract was diluted in sterile saline solution to a suspension having 40% transmittance at a wave length of 660 mμ. This suspension was added at 20 ml./liter of medium prior to pouring the plates.
The assay plates were held at 4° C. until used (5 day maximum). Following the application of the antibiotic-saturated assay discs the plates were incubated at 28° C. for a period of from 16 to 24 hours. Zones of inhibition were read as mm. diameter. They were used to determine relative potencies or, when compared with a purified reference standard, the potency in μg./ml. Assays of FR-02A in fermentation broths, mycelia and suspended nutrient matter separated from fermentation broths and in broths free of solids were performed after extracting the FR-02A into a suitable solvent. […] When such an assay is performed in a quantitative fashion, from 50 to 100 μg./ml. of antibiotic can be detected.

stability to handling = format: physicochemical; conditions: pale yellow solid
S. aureus 2756 = test: Antibiotic Spectrum Profile, agar diffusion test; format: cell-based; conditions: Staphylococcus aureus, 1 mg./ml., read-out: Diameters of Inhibition Zones
Bacillus sp. 633 = test: Antibiotic Spectrum Profile, agar diffusion test; format: cell-based; conditions: 1 mg./ml., read-out: Diameters of Inhibition Zones
Procedure: To further characterize FR-02A in vitro, activity data for it was obtained using an antibiotic spectrum profile. The test involves applications of a droplet of antibiotic approximately 0.015 ml. on the surface of seeded complex agar plates. […] The results are reported in Table 1 in terms of mm. of inhibition zones.

Sarcina lutea 1101 = test: Antibiotic Spectrum Profile, agar diffusion test; format: cell-based; conditions: Micrococcus luteus, 1 mg./ml., read-out: Diameters of Inhibition Zones
[3] = test system: S. aureus (res. Erythromycin) 1909; test: Antibiotic Spectrum Profile, agar diffusion test; format: cell-based; conditions: Staphylococcus aureus, 1 mg./ml., read-out: Diameters of Inhibition Zones
[4] = test system: Staphylococcus aureus (MB 108); test: in vitro activity; format: cell-based
E. acervulina = test: in vitro activity; format: cell-based
M. arthritidis = test: in vitro activity; format: cell-based
Streptococcus faecum = test: in vitro activity; format: cell-based
solubility = format: physicochemical; conditions: water-immiscible organic solvents
Alcaligenes faecalis 10 = test: Antibiotic Spectrum Profile, agar diffusion test; format: cell-based; conditions: 1 mg./ml., read-out: Diameters of Inhibition Zones
bacteria = test: antibacterial activity in vivo in mice; conditions: in words
Ps. stutzeri 1231 = test: Antibiotic Spectrum Profile, agar diffusion test; format: cell-based; conditions: Stutzerimonas stutzeri, 1 mg./ml., read-out: Diameters of Inhibition Zones
M. gallisepticum = M. gallisepticum air sacculitis in broilers; format: in vivo
PPLO = PPLO in pigs; format: in vivo
M. synoviae = test: in vitro activity; format: cell-based
[5] = test system: Staphylococcus aureus 108; test: Antibiotic Spectrum Profile, agar diffusion test; format: cell-based; conditions: 1 mg./ml., read-out: Diameters of Inhibition Zones
[6] = test system: Pseudomonas stutzeri (MB 1231); test: in vitro activity; format: cell-based
M. hyorthinis = test: in vitro activity; format: cell-based
[7] = test system: Staphylococcus aureus (MB 210); test: in vitro activity; format: cell-based
[8] = test system: Bacillus subtilis (MB 797); test: in vitro activity; format: cell-based

CC=CC=CC1OC(O)(C(CC)C(=O)NCC=CC=C(C)C(OC)C(C)C2OC(C=CC=CC=C(C)C(=O)c3c(O)ccn(C)c3=O)C(O)C2O)C(O)C(OC2OC(C)C(OC3OC(C)C(OC)C(O)C3OC)C(OC)C2O)C1(C)C (stereo not shown) [FR-02A, efrotomycin]
activity against species of Mycoplasma (species of Mycoplasma): shows activity
Toxicity, Tolerated ([1]; Table 2 line Proteus vulgaris): 5.0 mg./mouse
Toxicity, Toxic ([1]; Table 2 line Proteus vulgaris): 5.0 mg./mouse
Toxicity, Tolerated ([1]; Table 2 line Strep. pyogenes): 1.25 mg./mouse
Toxicity, Toxic ([1]; Table 2 line Strep. pyogenes): 5.0 mg./mouse
toxicity in vivo ([1]; in mice, in words): low toxicity
tolerated dose ([1]; noninfected mice, two doses 6 hours apart): 2.5 mg./mouse
zone of inhibition at 200 µg/mL ([2]; Comamonas terrigena, ATCC8461, 200 μg./ml., 3/8 inch discs, read-out: zones of inhibition): 16 mm
activity ([2]; Vibrio percolans (ATCC 8461)): Activity was also found
stability to normal handling (stability to handling): stable to normal handling
zone of inhibition at 1000 µg/mL (S. aureus 2756): 23 mm
zone of inhibition at 1000 µg/mL (Bacillus sp. 633): 18 mm
zone of inhibition at 1000 µg/mL (Sarcina lutea 1101): 28 mm
zone of inhibition at 1000 µg/mL [3]: 16 mm
activity [4]: Activity was also found
in vitro activity (E. acervulina): effective
in vitro activity (M. arthritidis): effective
in vitro activity (Streptococcus faecum): effective
solubility in water-immiscible organic solvents (solubility): highly soluble
zone of inhibition at 1000 µg/mL (Alcaligenes faecalis 10): 19 mm
antibacterial activity in vivo (bacteria): broad spectrum of antibacterial activity
zone of inhibition at 1000 µg/mL (Ps. stutzeri 1231): 10 mm
ED50 (M. gallisepticum; Mycoplasmoides gallisepticum, air sacculitis in broilers): 40 to 100 mg/kg
efficacy against M. gallisepticum air sacculitis (M. gallisepticum; subcutaneously, broilers): efficacious
efficacy against PPLO (PPLO): effective
in vitro activity (M. synoviae): effective
zone of inhibition at 1000 µg/mL [5]: 11 mm
activity [6]: Activity was also found
in vitro activity (M. hyorthinis): effective
activity [7]: Activity was also found
activity [8]: Activity was also found
